Results: paper PMC8746528, “Novel Substituted Purine Isosteres: Synthesis, Structure-Activity Relationships and Cytotoxic Activity Evaluation” (Molecules, 2021)

What was measured:
[1] = tested on: HCT116 colon cancer cell line; assay: MTT cell viability assay, HCT116; assay type: cell-based; conditions: Homo sapiens, HCT-116, treatment 72 h and 96 h, mean ± SD of three experiments
Description: (§1) The human HCT116 colon cancer cell line and PC-3 prostate cancer cell line were obtained from the American Type Cell Culture (ATCC, Bethesda, Md). Both cell lines were grown in 75 cm^2 culture flasks at 37 °C in 5% CO2 using Roswell Park Memorial Institute 1640 medium (RPMI 1640, Gibco) and Dulbecco’s modified Eagle’s medium F/12 (DMEM/F-12, Gibco), respectively, containing 10% fetal bovine serum (FBS, Gibco). To test the inhibitory activities of compounds using a cell-based assay, MTT assay was performed for cell viability, as described previously. Briefly, HCT116 cells were plated at a density of 1500 per well, while PC-3 cells were plated at a density of 750 per well in a 96-well plate. After 24 h, cells were treated with the indicated compounds in a dose-dependent manner for 72 h and 96 h (all tested compounds provided clear solutions). MTT [3-(4,5-dimethylthiazol-2-yl)-2,5-diphenyltetrazolium bromide] (Sigma M-5655) was added at a final concentration of 0.5 mg/mL directly to each well for 4 h at 37 °C. The medium was aspirated, and the blue MTT formazan precipitate was dissolved in dimethyl sulfoxide (DMSO). Absorbance was determined in a Powerwave microplate spectrophotometer (Biotek Instruments, Inc.) at 540 nm. Viable cell numbers were determined by tetrazolium conversion to its formazan dye. The IC50 was calculated by Microsoft Excel equation and confirmed by GraphPad Prism (7.0). Each experiment was performed in triplicate and mean values ± SD are reported.

[2] = tested on: PC-3 prostate cancer cell line; assay: MTT cell viability assay, PC-3; assay type: cell-based; conditions: Homo sapiens, treatment 72 h and 96 h, mean ± SD of three experiments
Description: as §1

[3] = tested on: normal human fibroblasts (WI-38); assay: MTT cytotoxicity towards normal fibroblasts; assay type: cell-based; conditions: WI-38; for IC50: MTT, normal human fibroblasts
Description: as §1
Figure 1 Dose-response curves for the administration of 14b, 26b, 35b on HCT116, PC-3 and WI-38 cells, as assessed by the MTT assay. Results are expressed as a percentage of controls. Statistical analysis was performed in triplicate determination at p < 0.05.

PC-3 cells [4] = assay: Annexin V-7AAD apoptosis assay; assay type: cell-based, human; conditions: positive control at 25 nM, PC-3
Description: (§2) For cell cycle analysis, cell culture supernatants and attached cells were collected, centrifuged, washed in PBS, fixed in 50% ethanol and stained with an RNase-containing propidium iodide solution (50 μg/mL) (all reagents from Sigma). For cell apoptosis assay, cells were harvested and stained with Annexin V binding buffer, Annexin V–FITC and 7-AAD (Annexin V-FITC Apoptosis Detection Kit, BD Systems). DNA content was analyzed on a BD Accuri C6 Flow Cytometer using the BD CSampler software (BD Biosciences, USA). Non-apoptotic events were used to calculate the percentage of cells distributed in each phase. A p value < 0.05 was considered to be statistically significant (Student’s t-test).

PC-3 cells [5] = assay: DNA staining (propidium iodide) and flow cytometric cell cycle analysis; assay type: cell-based, human; conditions: positive control at 25 nM, PC-3
Description: as §2

SMILES | melting point [°C] | IC50 [1] [µM] | IC50 [2] [µM] | cytotoxicity to normal cells in words [3] | IC50 [3] [µM] | induction of apoptosis (PC-3 cells [4]) [%] | G2/M phase blockade (PC-3 cells [5]) [%]
COc1ccc(Cn2cc(-c3cccc(F)c3)c3ccnc(Nc4ccccc4)c32)cc1 [10b, 3-(3-Fluorophenyl)-1-(4-methoxybenzyl)-Ν-phenyl-1H-pyrrolo[2,3-c]pyridin-7-amine] | 165 to 166 | > 10 | > 10 | – | – | – | –
COc1ccc(Cn2cc(-c3ccccc3)c3ccnc(Nc4cc(OC)c(OC)c(OC)c4)c32)cc1 [10c, 1-(4-Methoxybenzyl)-Ν-(3,4,5-trimethoxyphenyl)-3-phenyl-1H-pyrrolo[2,3-c]pyridin-7-amine] | 136 to 137 | 9.4 ± 0.53 | 9.8 ± 0.25 | – | – | – | –
COc1ccc(Cn2cc(-c3cccc(F)c3)c3ccnc(Nc4cc(OC)c(OC)c(OC)c4)c32)cc1 [10d, 3-(3-Fluorophenyl)-1-(4-methoxybenzyl)-Ν-(3,4,5-trimethoxyphenyl)-1H-pyrrolo[2,3-c]pyridin-7-amine] | 93 to 94 | > 10 | > 10 | – | – | – | –
COc1ccc(Cn2cc(-c3ccccc3)c3ncnc(Nc4ccccc4)c32)cc1 [24a, 5-(4-Methoxybenzyl)-Ν,7-diphenyl-5H-pyrrolo[3,2-d]pyrimidin-4-amine] | 57 to 58 | > 10 | > 10 | – | – | – | –
COc1ccc(Cn2cc(-c3cccc(F)c3)c3ncnc(Nc4ccccc4)c32)cc1 [24b, 7-(3-Fluorophenyl)-5-(4-methoxybenzyl)-Ν-phenyl-5H-pyrrolo[3,2-d]pyrimidin-4-amine] | 131 to 132 | > 10 | > 10 | – | – | – | –
COc1ccc(Cn2cc(-c3cccc(F)c3)c3ncnc(Nc4cc(OC)c(OC)c(OC)c4)c32)cc1 [24d, 7-(3-Fluorophenyl)-5-(4-methoxybenzyl)-N-(3,4,5-trimethoxyphenyl)-5H-pyrrolo[3,2-d]pyrimidin-4-amine] | 96 to 97 | > 10 | > 10 | – | – | – | –
COc1ccc(Cn2cc(-c3ccccc3)c3ncnc(N4CCN(C)CC4)c32)cc1 [25a, 5-(4-Methoxybenzyl)-4-(4-methylpiperazin-1-yl)-7-phenyl-5H-pyrrolo[3,2-d]pyrimidine] | 150 to 151 | > 10 | > 10 | – | – | – | –
COc1ccc(Cn2cc(-c3cccc(F)c3)c3ncnc(N4CCN(C)CC4)c32)cc1 [25b, 7-(3-Fluorophenyl)-5-(4-methoxybenzyl)-4-(4-methylpiperazin-1-yl)-5H-pyrrolo[3,2-d]pyrimidine] | 151 to 152 | > 10 | > 10 | – | – | – | –
COc1cc(Nc2ncnc3c(-c4ccccc4)c[nH]c23)cc(OC)c1OC [26c, N-(3,4,5-Trimethoxyphenyl)-7-phenyl-5H-pyrrolo[3,2-d]pyrimidin-4-amine] | > 250 | 7.8 ± 0.45 | 9.7 ± 0.5 | – | – | – | –
COc1cc(Nc2ncnc3c(-c4cccc(F)c4)c[nH]c23)cc(OC)c1OC [26d, 7-(3-Fluorophenyl)-N-(3,4,5-trimethoxyphenyl)-5H-pyrrolo[3,2-d]pyrimidin-4-amine] | 139 to 140 | 8.7 ± 0.58 | 5.9 ± 0.37 | – | – | – | –
CN1CCN(c2ncnc3c(-c4ccccc4)c[nH]c23)CC1 [26e, 4-(4-Methylpiperazin-1-yl)-7-phenyl-5H-pyrrolo[3,2-d]pyrimidine] | > 250 | > 10 | > 10 | – | – | – | –
CN1CCN(c2ncnc3c(-c4cccc(F)c4)c[nH]c23)CC1 [26f, 7-(3-Fluorophenyl)-4-(4-methylpiperazin-1-yl)-5H-pyrrolo[3,2-d]pyrimidine] | – | > 10 | > 10 | – | – | – | –
COc1cc(Nc2ncnc3c(-c4cccc(F)c4)n[nH]c23)cc(OC)c1OC [35d, 3-(3-Fluorophenyl)-N-(3,4,5-trimethoxyphenyl)-1H-pyrazolo[4,3-d]pyrimidin-7-amine] | > 250 | > 10 | > 10 | – | – | – | –
CN1CCN(c2ncnc3c(-c4ccccc4)n[nH]c23)CC1 [35e, 7-(4-Methylpiperazin-1-yl)-3-phenyl-1H-pyrazolo[4,3-d]pyrimidine] | – | > 10 | > 10 | – | – | – | –
CN1CCN(c2ncnc3c(-c4cccc(F)c4)n[nH]c23)CC1 [35f, 3-(3-Fluorophenyl)-7-(4-methylpiperazin-1-yl)-1H-pyrazolo[4,3-d]pyrimidine] | – | > 10 | > 10 | – | – | – | –

Stronger by IC50 [1], values ahead:

melting point [°C] | IC50 [1] [µM] | IC50 [2] [µM] | SMILES | cytotoxicity to normal cells in words [3] | IC50 [3] [µM] | induction of apoptosis (PC-3 cells [4]) [%] | G2/M phase blockade (PC-3 cells [5]) [%]
180 to 181 | 2.4 ± 0.1 | > 10 | COc1ccc(Cn2cc(-c3ccccc3)c3ccnc(Nc4ccccc4)c32)cc1 [10a, 1-(4-Methoxybenzyl)-Ν,3-diphenyl-1H-pyrrolo[2,3-c]pyridin-7-amine] | – | – | – | –
88 to 89 | 5 ± 0.18 | 7 ± 0.4 | COc1ccc(Cn2cc(-c3ccccc3)c3ccnc(N4CCN(C)CC4)c32)cc1 [13a, 1-(4-Methoxybenzyl)-7-(4-methylpiperazin-1-yl)-3-phenyl-1H-pyrrolo[2,3-c]pyridine] | – | – | – | –
– | 4.4 ± 0.35 | 9.3 ± 0.76 | COc1ccc(Cn2cc(-c3cccc(F)c3)c3ccnc(N4CCN(C)CC4)c32)cc1 [13b, 3-(3-Fluorophenyl)-1-(4-methoxybenzyl)-7-(4-methylpiperazin-1-yl)-1H-pyrrolo[2,3-c]pyridine] | – | – | – | –
139 to 140 | 5 ± 0.1 | 0.215 ± 0.025 | c1ccc(Nc2nccc3c(-c4ccccc4)c[nH]c23)cc1 [14a, Ν,3-Diphenyl-1H-pyrrolo[2,3-c]pyridin-7-amine] | rather cytotoxic to normal cells | < 10 | – | –
153 to 154 | 0.72 ± 0.09 | 0.47 ± 0.12 | COc1cc(Nc2nccc3c(-c4ccccc4)c[nH]c23)cc(OC)c1OC [14c, N-(3,4,5-trimethoxyphenyl)-3-phenyl-1H-pyrrolo[2,3-c]pyridin-7-amine] | – | < 10 | – | –
149 to 150 | 3.9 ± 0.3 | 1.45 ± 0.25 | COc1cc(Nc2nccc3c(-c4cccc(F)c4)c[nH]c23)cc(OC)c1OC [14d, 3-(3-Fluorophenyl)-N-(3,4,5-trimethoxyphenyl)-1H-pyrrolo[2,3-c]pyridin-7-amine] | – | < 10 | – | –
220 to 221 | 2.85 ± 0.05 | 1.75 ± 0.25 | CN1CCN(c2nccc3c(-c4ccccc4)c[nH]c23)CC1 [14e, 7-(4-Methylpiperazin-1-yl)-3-phenyl-1H-pyrrolo[2,3-c]pyridine] | – | < 10 | – | –
209 to 210 | 2.35 ± 0.15 | 2.35 ± 0.05 | CN1CCN(c2nccc3c(-c4cccc(F)c4)c[nH]c23)CC1 [14f, 3-(3-Fluorophenyl)-7-(4-methylpiperazin-1-yl)-1H-pyrrolo[2,3-c]pyridine] | – | – | – | –
187 to 188 | 4.5 ± 0.25 | 2.25 ± 0.35 | COc1ccc(Cn2cc(-c3ccccc3)c3ncnc(Nc4cc(OC)c(OC)c(OC)c4)c32)cc1 [24c, 5-(4-Methoxybenzyl)-N-(3,4,5-trimethoxyphenyl)-7-phenyl-5H-pyrrolo[3,2-d]pyrimidin-4-amine] | – | – | – | –
> 250 | 2.75 ± 0.35 | 6.2 ± 0.23 | c1ccc(Nc2ncnc3c(-c4ccccc4)c[nH]c23)cc1 [26a, Ν,7-Diphenyl-5H-pyrrolo[3,2-d]pyrimidin-4-amine] | – | – | – | –
– | 7.3 ± 0.62 | 4.7 ± 0.18 | c1ccc(Nc2ncnc3c(-c4ccccc4)n[nH]c23)cc1 [35a, N,3-Diphenyl-1H-pyrazolo[4,3-d]pyrimidin-7-amine] | – | – | – | –
> 250 | 4.7 ± 0.25 | 5.7 ± 0.4 | COc1cc(Nc2ncnc3c(-c4ccccc4)n[nH]c23)cc(OC)c1OC [35c, 3-Phenyl-N-(3,4,5-trimethoxyphenyl)-1H-pyrazolo[4,3-d]pyrimidin-7-amine] | – | – | – | –
– | 0.095 ± 0.01 | 0.025 ± 0.004 | COc1cccc2c1C(=O)c1c(O)c3c(c(O)c1C2=O)C[C@@](O)(C(=O)CO)C[C@@H]3O[C@H]1C[C@H](N)[C@H](O)[C@H](C)O1 [Dox, Doxorubicin, reference compound] | – | – | 28 | 58
